# Source: US20250099420A1, “SMALL MOLECULE MODULATORS OF GPR139 COMPLEX” (University of Florida Research Foundation, Incorporated, priority 2022, published 2025)
# Read-outs that look alike come from different tables or passages of the source.
# How the values were obtained:
# GPR139 = target: T1, GPR139 (Homo sapiens, UniProt Q6DWJ6); experiment: GPR139 Agonist titration / agonist counterscreen assay (calcium detection, HEK-GPR139 cells); type: cell-based; design: expressed in transfected cells; host or cells: HEK Aequorin cells, Maxcyte transient transfection; conditions: GPR139 Agonist Activity; for Averaged Max % Response (±St. Dev.): activity relative to known control; for EC50: read-out: EC50
# T1 sequence (Q6DWJ6 1-353): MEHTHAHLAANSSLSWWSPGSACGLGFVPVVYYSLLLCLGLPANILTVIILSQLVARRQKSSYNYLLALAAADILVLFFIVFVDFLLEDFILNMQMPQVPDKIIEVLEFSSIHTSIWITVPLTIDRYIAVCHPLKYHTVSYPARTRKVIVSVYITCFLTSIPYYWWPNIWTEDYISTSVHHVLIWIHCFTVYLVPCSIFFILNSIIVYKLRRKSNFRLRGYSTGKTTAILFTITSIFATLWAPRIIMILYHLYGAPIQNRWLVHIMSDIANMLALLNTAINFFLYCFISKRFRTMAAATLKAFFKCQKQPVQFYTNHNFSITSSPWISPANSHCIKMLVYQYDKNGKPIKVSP
# Procedure: GPR activity was assessed using a calcium detection assay. […] Negative control samples were treated with DMSO. […] Intracellular calcium was measured using Calcium 5.
# parental HEK cells = experiment: HEK parental Agonist Counterscreen Assay (non-transfected cells); type: cell-based; conditions: for Lipophilic Efficiency (logD) / Lipophilic Efficiency (logP) / Averaged Max % Response (±St. Dev.): HEK Agonist Activity section; for Averaged Max % Response (±St. Dev.): activity relative to known control; for EC50: HEK Agonist Activity section of Table 4 (parental HEK counterscreen)
# Text: The high control for the agonist counterscreen was Forskolin not acetylcholine.
# [1] = values printed in E-notation without unit
Structure (SMILES),Efficiency Ligand (GPR139),Hill Slope (GPR139),Lipophilic Efficiency (logD) (GPR139),Lipophilic Efficiency (logP) (GPR139),Averaged Max % Response (±St. Dev.) (GPR139),Lipophilic Efficiency (logD) (parental HEK cells),Lipophilic Efficiency (logP) (parental HEK cells),Averaged Max % Response (±St. Dev.) (parental HEK cells),"EC50 (parental HEK cells; Homo sapiens, HEK293)",Lipophilic Efficiency (logD) (GPR139; based on logD),Lipophilic Efficiency (logP) (GPR139; based on logP),Hill Slope (GPR139; fitted dose-response curve),Efficiency Ligand (GPR139; ligand efficiency),EC50 (GPR139; [1]),EC50 (GPR139; HEK-GPR139 cells),EC50 (parental HEK cells)
Cc1ccc(CC2CCC(CC(=O)CC3CCCCCCC3)C2=O)cc1 (centres unmarked) [SR-01000151470],0.31,1.14,2.62,2.62,78.27 ± 16.46%,1.44,1.44,−9.17 ± 11.99%,> 14.1 µM,,,,,,,
O=C(CCc1nc2cccnc2n1Cc1cccs1)NCc1ccc2c(c1)OCO2 [SR-01000151666],,,,,107.14 ± 25.50%,1.87,1.87,−3.95 ± 11.76%,> 14.1 µM,4.24,4.24,0.74,0.34,60.3 nM,,
O=C(Cn1nc(Cc2ccncc2)c2ccccc2c1=O)N1CCCc2ccccc21 [SR-01000151917],0.28,1.73,3.34,3.33,110.81 ± 5.15%,1.92,1.92,10.70 ± 4.71%,> 14.1 µM,,,,,,537 nM,
O=C(Cn1ncc2c1-c1ccccc1OC2)Nc1ccc(Cl)cc1 [SR-01000152099],0.36,0.62,3.61,3.61,112.22 ± 29.96%,2.23,2.23,29.06 ± 12.18%,> 14.1 µM,,,,,,589 nM,
Cc1cccnc1NC(=O)Cn1ncc2c1-c1ccccc1OC2 [SR-01000152365],,,,,96.01 ± 17.34%,2.49,2.49,18.44 ± 8.07%,,4.77,4.77,0.99,0.42,73 nM,,> 14.1 µM
Cc1ccc2c(c1)-c1c(cnn1CC(=O)Nc1ccccn1)CO2 [SR-01000152429],,,,,109.51 ± 16.91%,2.49,2.49,−0.18 ± 21.55%,,4.53,4.53,1.07,0.40,128 nM,,> 14.1 µM
CC(NC(=O)Cn1ncc2ccccc21)c1ccc2c(c1)OCCO2 (centres unmarked) [SR-01000152760],,,,,85.23 ± 10.03%,2.88,2.88,0.48 ± 8.40%,,4.79,4.79,0.63,0.38,174 nM,,> 14.1 µM
Cc1cc(=O)n2nc(NCc3ccccc3Cl)nc2[nH]1 [SR-01000153886],0.41,2.51,3.22,3.22,90.96 ± 29.33%,2.16,2.16,−3.87 ± 9.73%,> 14.1 µM,,,,,,1200 nM,
O=c1c2c([nH]c3nc(NCc4ccccc4Cl)nn13)CCC2 [SR-01000153956],0.38,1.89,2.80,2.80,93.85 ± 32.13%,1.70,1.70,21.15 ± 4.99%,> 14.1 µM,,,,,,1100 nM,
